# Test results as given in paper PMC8944080, “Production of indole by Corynebacterium glutamicum microbial cell factories for flavor and fragrance applications” (Microbial Cell Factories, 2022).
# Target: T1, PrTNA (Proteiniclasticum ruminis, UniProt A0A1I5A1Q1)
# T1 construct: gene tnaA; full length, untagged, codon-optimised gene in pGold, expressed in C. glutamicum C1*
# T1 sequence (A0A1I5A1Q1 1-461): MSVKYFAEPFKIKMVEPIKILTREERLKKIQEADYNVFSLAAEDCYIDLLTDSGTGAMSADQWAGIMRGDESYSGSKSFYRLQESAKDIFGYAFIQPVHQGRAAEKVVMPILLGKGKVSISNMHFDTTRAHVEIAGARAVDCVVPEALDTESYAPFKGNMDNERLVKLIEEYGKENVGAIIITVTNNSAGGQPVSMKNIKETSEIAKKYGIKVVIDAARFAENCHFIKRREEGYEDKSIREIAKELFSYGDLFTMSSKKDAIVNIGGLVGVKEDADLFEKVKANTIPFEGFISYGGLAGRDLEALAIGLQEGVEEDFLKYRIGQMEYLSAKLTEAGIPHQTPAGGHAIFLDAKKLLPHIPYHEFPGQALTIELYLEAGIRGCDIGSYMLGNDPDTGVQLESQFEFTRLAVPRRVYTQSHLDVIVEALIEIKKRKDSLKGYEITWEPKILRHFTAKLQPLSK
# Assay: whole-cell conversion to indole, HPLC
# Type: cell-based
# Conditions: C. glutamicum C1* co-expressing aroP, CGXII medium, 1 g L^−1 Trp; empty vector control without aroP
smiles,measurement,value
N[C@@H](Cc1c[nH]c2ccccc12)C(=O)O [L-tryptophan],"whole-cell conversion to indole, HPLC",Indole production was observed for all six tested TNAs
